Broadly, the IC50 is the concentration that gives 50% inhibition. A lower IC50 goes with inhibition by little substance.

For the assay, the system named is T1, COX-2.
T1 construct: gene Ptgs2
As to the kind of experiment: chromogenic TMPD oxidation assay of COX-2 activity; RAW […] cells per figure legend. It counts as biochemical.

Compound `O=c1c2cc(O)c(O)cc2oc2cc(O)c([C@@H]3O[C@H](CO)[C@@H](O)[C@H](O)[C@H]3O)c(O)c12` [PT-Mangiferin, Mangiferin] displayed an IC50 of 40 µM. This counts as double-digit micromolar.

The values are drawn from PMC5316935, “Mangiferin from Pueraria tuberosa reduces inflammation via inactivation of NLRP3 inflammasome” (Scientific Reports, 2017).
